Measurements from EP3516395B1, “METHOD FOR DETERMINING AFFINITY BETWEEN LIGANDS AND A TARGET” (Plant Advanced Technologies Pat, priority 2016, dated 2018).
Read-outs that look alike come from different tables or passages of the source.

Key:
[1] = tested on: collagénase issue de Clostridium histolyticum; experiment: Relative affinity by competitive binding, ultrafiltration and LC-MS (Examples 2, 3, 6); settings: for Affinités relatives: reference 3,5-DCQ
Method: Une solution de travail de collagénase issue de Clostridium histolyticum à 6.25 mg/mL est préparée en dissolvant de la poudre de l'enzyme lyophilisée dans 50 mM d'acétate d'ammonium, avec un pH de 7.5, ajusté par une solution aqueuse d'ammoniac. L'échantillon est préparé en utilisant l'un des solvants suivants : des glycols, le DMSO (diméthylsulfoxide), l'éthanol, pur ou en solution dans l'eau. La concentration dans l'échantillon des ligands initiaux est équimolaire et doit être dans la gamme de 0,75 à 1 mM. Les ligands choisis étaient des isomères d'acide 3,5-dicaféoylquinique (noté 3,5-DCQ par la suite) et des isomères d'esters d'acide 3,5-dicaféoylquinique et de dipropylène glycol (noté 3,5-DCQ-DPG par la suite). Un échantillon de référence est préparé également en diluant l'échantillon de 10 à 20 fois dans une solution d'eau et d'un quart de volume d'acétonitrile.
• 1. Étape de préconditionnement - Des puits à membrane filtrante sont pré-conditionnées avec un volume de 500 µl d'acétate d'ammonium 50mM pH 7,5 qui est passé à travers la membrane avec une centrifugation de 14000 g pendant 60 secondes. • 2. Étape de liaison - Un volume de 75 µl de la solution de collagénase à une concentration de 6,25mg/ml dans 50 mM d'acétate d'ammonium, avec un pH de 7.5 est mélangé avec 10 µl de l'échantillon pendant 10 min dans un tube d'Eppendorf en plastique. Dans ce mélange, on a 55,79 µM de collagénase et une gamme de 93,75 µM à 125 µM de ligands (3,5-DCQ et 3,5-DCQ-DPG) soit un ratio ligands/cible entre […]. • 3. Étape de lavage - Le mélange de l'enzyme et de l'échantillon est déposé dans un puits préconditionné à l'étape de préconditionnement, puis centrifugé à 14000 g jusqu'à l'élimination de l'essentiel du solvant. Les complexes enzyme-ligands restent à la surface de la membrane du filtre puis sont à nouveau suspendu dans un volume de 100 µL de la même solution à 50 mM d'acétate d'ammonium, avec un pH de 7.5 et centrifugé à 14000 g jusqu'à élimination du solvant. Cette procédure est répétée trois fois et élimine tous les composés qui ne sont pas liés à l'enzyme. • 4. Étape de séparation - Les complexes enzyme-ligands retenus dans le filtre sont à nouveau suspendus dans un volume de 10 µL d'eau ultra-pure, puis sont mélangés avec un volume de 40 µL d'acétonitrile pour dénaturer et précipiter l'enzyme et, en même temps libérer les ligands. Le mélange est centrifugé à 21000 g pendant 10 min pour séparer le précipité du surnageant. • 5. Étape d'analyse - Ledit surnageant formant la solution traitée est analysé par chromatographie en phase liquide couplée à une spectrométrie de masse. L'échantillon de référence est analysé également de la même manière, en utilisant les mêmes conditions d'analyse. Les affinités relatives sont calculées selon la méthode décrite ci-après. Le résultat est sur la première ligne du tableau 3.
Plusieurs échantillons sont préparés comme dans l'exemple 2, mais avec une proportion entre les ligands 3,5-DCQ et 3,5-DCQ-DPG non plus équimolaire mais déséquilibrée, comme indiqué dans le tableau 3 ci-après.
L'analyse est conduite de la même manière que dans l'exemple 2. Les résultats sont de la deuxième à la quatrième ligne du tableau 3.
La préparation des échantillons (ligands et cible) et leur analyse ont été réalisés selon l'exemple 2. Les effets des variations du rapport de ligands/cible ont été évalués.
Une analyse par chromatographie en phase liquide fournit un chromatogramme tel que montré par les figures 1 et 2. Le chromatogramme représente une intensité de signal en fonction du temps de rétention dans une colonne. Le signal présente différents pics d'intensité variable. Chaque pic est associé à l'un des ligands présent dans l'échantillon et la solution traitée. • 1. Normalisation de l'intensité du signal analytique pour les ligands dans l'échantillon de référence. […]

[2] = tested on: collagénase issue de Clostridium histolyticum; experiment: Collagenase inhibition with synthetic substrate FALGPA (Example 4); type: biochemical; settings: for activité de la collagénase: ligand 5µM, FALGPA 1 mM, tris-HCl buffer alone = 100%
Method: L'activité inhibitrice de la collagénase issue de Clostridium histolyticum a été expérimentée en mettant en présence de la collagénase et du substrat synthétique FALGPA (N-(3-[2-Furyl]acryloyl)-Leu-Gly-Pro-Ala) préparé à une concentration de 1 mM, du tampon tris-HCI seul pour établir une référence, et en présence respectivement de tampon tris-HCI additionné de 3,5-DCQ et 3,5-DCQ-DPG en concentration à 5µM. La référence montrant une activité de la collagénase de 100%, on a mesuré une activité de la collagénase de 94% en présence de 3,5-DCQ et une activité de 50% en présence de 3,5-DCQ-DPG. A cette concentration, la collagénase de Clostridium histolyticum est inhibée de manière significative par le 3,5-DCQ-DPG, tandis qu'elle ne l'est que très peu par le 3,5-DCQ.

[3] = target: collagénase issue de Clostridium histolyticum; settings: J. Nat. Prod. 2005, 68, 794-796; cited from earlier work
tyrosinase de champignon = experiment: Relative affinity by competitive binding, ultrafiltration and UPLC-MS/UV (Example 1); settings: equimolar ligands; for Facteur de normalisation, solution traitée: NFTB, peak area UV 270 nm relative to reference ligand moracénine B; for Affinités relatives: RA = NFTB/NFeq, reference ligand moracénine B
Method: Une solution de travail de tyrosinase de champignon à 1.25 mg/mL est préparée en dissolvant de la poudre de l'enzyme lyophilisée dans 50 mM d'acétate d'ammonium, avec un pH de 7.0. L'échantillon est préparé en utilisant l'un des solvants suivants : des glycols, DMSO (diméthylsulfoxide), l'éthanol, pur ou en solution dans l'eau. La concentration dans l'échantillon des ligands initiaux est équimolaire et doit être dans la gamme de 0,75 à 1 mM. Les ligands choisis étaient des inhibiteurs connus de la tyrosinase isolés depuis des racines de murier noir (Morus nigra) : la moracénine A, moracénine B et la kuwanone C. Un échantillon de référence est préparé également en diluant l'échantillon de 10 à 20 fois dans une solution d'eau et d'un quart de volume d'acétonitrile.
• 1. Étape de préconditionnement - Des puits à membrane filtrante sont pré-conditionnées avec un volume de 500 µl d'une solution à 85% d'acétate d'ammonium et 15% d'éthanol qui est passé à travers la membrane avec une centrifugation de 14000 g pendant 60 secondes. • 2. Étape de liaison - La préparation de tyrosinase (1.25 mg/mL, 75 µL) est mélangée avec 5 µl de l'échantillon dans un tube d'Eppendorf en plastique, puis est incubée pendant 5 min. Dans ce mélange, on a 9,16 µM de tyrosinase et une gamme de 46,88 µM à 62,5 µM de ligands (moracénine A, moracénine B et kuwanone C) soit un ratio ligands/cible allant de 5,12 à 6,83. • 3. Étape de lavage - le mélange de l'enzyme et de l'échantillon est déposé dans un puits préconditionné à l'étape de préconditionnement, puis centrifugé à 14000 g jusqu'à l'élimination de l'essentiel du solvant. Les complexes enzyme-ligands restent à la surface de la membrane du filtre puis sont à nouveau suspendu dans un volume de 100 µL de la même solution à 85% d'acétate d'ammonium et 15% d'éthanol et centrifugé à 14000 g jusqu'à élimination du solvant. Cette procédure est répétée trois fois et élimine tous les composés qui ne sont pas liés à l'enzyme. • 4. Étape de séparation - Les complexes enzyme-ligands retenus dans le filtre sont à nouveau suspendus dans un volume de 10 µL d'eau ultra-pure, puis sont mélangés avec un volume de 40 µL d'acétonitrile pour dénaturer et précipiter l'enzyme et, en même temps libérer les ligands. Le mélange est centrifugé à 21000 g pendant 10 min pour séparer le précipité du surnageant. • 5. Étape d'analyse - Ledit surnageant formant la solution traitée est analysé par chromatographie en phase liquide couplée à une spectrométrie de masse, connue également par l'acronyme UPLC-MS. L'échantillon de référence est analysé également de la même manière, en utilisant les mêmes conditions d'analyse. Les affinités relatives sont calculées selon la méthode décrite ci-après. De préférence, l'échantillon de référence et la solution traitée sont analysés séquentiellement pour éliminer des dispersions dues aux réglages de l'appareillage.
Une analyse par chromatographie en phase liquide fournit un chromatogramme tel que montré par les figures 1 et 2. Le chromatogramme représente une intensité de signal en fonction du temps de rétention dans une colonne. Le signal présente différents pics d'intensité variable. Chaque pic est associé à l'un des ligands présent dans l'échantillon et la solution traitée. • 1. Normalisation de l'intensité du signal analytique pour les ligands dans l'échantillon de référence. Pour chaque chaque ligand CEi dans l'échantillon de référence, on établit des facteurs de normalisation NFeq dudit ligand CEi par comparaison au ligand de référence REF, selon l'équation suivante : NFeq,CEi = (ISeq,CEi)/(ISeq,REF) [formula] où : • NF est un facteur de normalisation; • ISeq,CEi est l'intensité du signal analytique pour le ligand CEi dans l'échantillon; • ISeq,REF est l'intensité du signal analytique pour le ligand de référence REF dans l'échantillon. L'intensité peut être choisie parmi l'aire du pic ou la valeur maximale du pic. Le facteur de normalisation du ligand de référence vaut toujours 1. • 2. […]

[4] = ex. 2, molar ratio 3,5-DCQ-DPG/3,5-DCQ 1/1 (équimolaire)
[5] = ex. 3.1, molar ratio 3,5-DCQ-DPG/3,5-DCQ 0,5/1
[6] = ex. 3.2, molar ratio 3,5-DCQ-DPG/3,5-DCQ 0,2/1
[7] = ex. 3.3, molar ratio 3,5-DCQ-DPG/3,5-DCQ 3/1

Facteur de normalisation, solution traitée (tyrosinase de champignon)	Affinités relatives (tyrosinase de champignon)	Compound	Facteur de normalisation, solution traitée [1, 4]	Affinités relatives [1, 4]	Facteur de normalisation, solution traitée [1, 5]	Affinités relatives [1, 5]	Facteur de normalisation, solution traitée [1, 6]	Affinités relatives [1, 6]	Facteur de normalisation, solution traitée [1, 7]	Affinités relatives [1, 7]	activité de la collagénase [2]	IC50 [3]	(RADCQ−DPG^Mx)/(RADCQ−DPG^Mref) ([1]; sample M_1: collagénase 32,1 µM, DCQ/DCQ-DPG 75/75 µM, ligands/collagénase 2,33, competition)	(RADCQ−DPG^Mx)/(RADCQ−DPG^Mref) ([1]; sample M_2: collagénase 32,1 µM, DCQ/DCQ-DPG 50/50 µM, ligands/collagénase 1,56, competition)	(RADCQ−DPG^Mx)/(RADCQ−DPG^Mref) ([1]; sample M_3: collagénase 32,1 µM, DCQ/DCQ-DPG 15/15 µM, ligands/collagénase 0,47, no competition)	IC50 ([2]; approximate, from Example 4 (50% activity at 5µM))
–	–	O=C(/C=C/c1ccc(O)c(O)c1)OC1CC(O)(C(=O)O)CC(OC(=O)/C=C/c2ccc(O)c(O)c2)C1O (stereo not drawn) [3,5-DCQ, acide 3,5-dicaféoylquinique]	1,00	1,00	1,00	1,00	1,00	1,00	1,00	1,00	94%	23.6 µM	–	–	–	–
0,78	1,07	CC(C)=CCc1c(-c2ccc(O)cc2O)oc2c(CC=C(C)C)c(O)cc(O)c2c1=O [kuwanone C]	–	–	–	–	–	–	–	–	–	–	–	–	–	–
–	–	esters d'acide 3,5-dicaféoylquinique et de dipropylène glycol [3,5-DCQ-DPG]	6,03	5,21	2,49	4,05	0,81	3,01	13,64	4,09	50%	–	0,96	0,71	0,47	~5 µM
1,00	1,00	moracénine B	–	–	–	–	–	–	–	–	–	–	–	–	–	–
